Laboratory results from patent publication US20210214376A1, “HALOGENATED BIOTIN-MODIFIED DIMER AND USE THEREOF” (The University of Tokyo, priority 2018, published 2021).

B1: CEA-V2122 (scFv)
scFv: QVKLEQSGAEVVKPGASVKLSCKASGFNIKDSYMHWLRQGPGQRLEWIGWIDPENGDTEYAPKFQGKATFTTDTSANTAYLGLSSLRPEDTAVYYCNEGTPTGPYYFDYWGQGTLVTVSSGGGGSGGGGSGGGGSENVLTQSPSSMSVSVGDRVNIACSASSSVPYMHWLQQKPGKSPKLLIYLTSNLASGVPSRFSGSGSGTDYSLTISSVQPEDAATYYCQQRSSYPLTFGGGTKLEIKGGGGSGGGGAEAGITGTWSDQLGDTFIVTAGADGALTGTYENAVGGAESRYVLTGRYDSAPATDGSGTALGWTVAWKNNSKNAHSATTWSGQYVGGADAKINTQWLLTSGTTNANAWKSTLVGHDTFTKVKPSAASHHHHHH
notes: Fusion of an anti-CEACAM5 scFv and mutant streptavidin V2122; also called scFv-V2122 (anti-CEACAM5)

Columns and labels:
[1] = tested on: HER2-positive SKOV3 cells; test: Binding of astatine-labeled Psyche B to Herceptin-V2122 pre-bound to SKOV3 cells; assay type: cell-based; details: 10 kBq/tube; Herceptin-V2122 versus negative control CEA-V2122; FIG. 6
Protocol: (§1) Whether or not astatine-labeled Psyche B has binding ability to Herceptin-V2122, which had previously been bound to HER2-positive SKOV3 cells, was confirmed. As a negative control, CEA-V2122 was used. Psyche B-At211 used herein was prepared according to Example 1(4), whereas Herceptin-V2122 and CEA-V2122 were prepared according to the method described in Japanese Patent Application 2018-247363, as described above. The specific assay method is as follows.
(§2) Four 1.5-mL tubes were prepared, and the cells were then dispersed into each tube to a cell density of 0.875×10^6 cells/tube. Herceptin-V2122 was added to two tubes to result in N=2, whereas CEA-V2122 was added to the remaining two tubes. Subsequently, incubation was carried out on ice for 1 hour, and astatine-labeled Psyche B was then added to the resultant to 10 kBq/tube. Thereafter, the obtained mixture was incubated at room temperature for 30 minutes, while shaking. Finally, the cells were precipitated by centrifugation, and a supernatant was then recovered. The supernatant was washed with PBS twice, and the radiation dose was then counted using a gamma counter. The results are shown in the graph of FIG. 6.

Herceptin-V2122 = test: Binding assay of astatine-labeled Psyche B and Herceptin-Cupid using Ni-NTA magnetic beads; details: Herceptin-V2122 solution versus PBS control; 5.8 kBq; FIG. 5
Protocol: In order to confirm whether or not astatine-labeled Psyche B has binding ability to Cupid, a binding assay was carried out using Herceptin-Cupid and Ni-NTA magnetic beads (manufactured by Thermo) that bind to a 6×His-tag added to Herceptin-Cupid. Psyche B-At211 used herein was prepared according to Example 1(4), whereas Herceptin-Cupid was prepared according to the method described in Japanese Patent Application 2018-247363, as described above. The specific assay method is as follows.
That is, 4 μL of Herceptin-V2122 solution or PBS used as a control was dispensed into a 1.5-mL tube. Into the tube, 10 μL (corresponding to 5.8 kBq) of Psyche-At211 was added, and the obtained mixture was then incubated at room temperature for 5 minutes. Subsequently, 10 μL of Ni-NTA magnetic beads equilibrated with PBS were added to the reaction mixture, and the thus obtained mixture was then incubated at room temperature for 5 minutes. Thereafter, the beads were precipitated and immobilized by using a magnet, and a supernatant was then recovered. The supernatant was washed with 100 μL of PBS twice, and the radiation dose was then counted using a gamma counter. The results are shown in the graph of FIG. 5.

CEA-V2122 [2] = biological target: T1, CEA-V2122 (Streptomyces avidinii, UniProt P22629, Y46S/N47D/S51D/S69N/N73G/Y107S/R108K/E125D/R127K/E140N); test: Analysis of affinity of CEA-V2122 for Psyche B-iodine and Psyche P-iodine (Biacore T200, Single-Cycle Kinetics); assay type: binding; details: for bond with CEA-V2122: conclusion from Table 1; for koff: immobilized CEA-V2122, 25° C., Bivalent Analyze mode curve fitting
T1 construct: At the C-terminus a 6xHis tag; The expressed gene carries a pelB signal
T1 sequence (P22629 whole entry Y46S/N47D/S51D/S69N/N73G/Y107S/R108K/E125D/R127K/E140N, looked up): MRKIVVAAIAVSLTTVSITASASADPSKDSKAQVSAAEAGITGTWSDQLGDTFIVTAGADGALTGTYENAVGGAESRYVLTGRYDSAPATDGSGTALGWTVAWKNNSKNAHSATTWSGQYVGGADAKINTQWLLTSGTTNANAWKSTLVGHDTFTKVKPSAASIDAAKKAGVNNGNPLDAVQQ
Source text: (§3) The data regarding the affinity of CEA-V2122 for Psyche B-iodine and for Psyche P-iodine were obtained in accordance with the description of Japanese Patent Application 2018-247363. Briefly stating, using an amine coupling kit (GE Healthcare Life Sciences), Sensor Chip CM5 (GE Healthcare Life Science) was set to be a target value that was 5000 RU, and the purified CEA-V2122 was immobilized. With regard to the concentration of the analyte, 5 types of two-fold serial dilutions from 1E-08 M to 6.25E-10 M were used. Biacore T200 (GE Healthcare Life Sciences) was used, the measurement temperature was set to be 25° C., and kinetics data were then obtained according to Single-Cycle Kinetics analysis. Using Biacore T200 Evaluation Software, version 2.0 (GE Healthcare Life Sciences), the obtained data were subjected to curve fitting in a Bivalent Analyze mode, and the evaluation value of each parameter was obtained. The dissociation constant KD is obtained according to Kd/Ka=KD.

CEA-V2122 [3] = biological target: T2, CEA-V2122 (Streptomyces avidinii, UniProt P22629, E125D/E140N/N47D/N73G/R108K/R127K/S51D/S69N/Y107S/Y46S); test: as above; assay type: binding; details: for kon: read-out: Ka
T2 construct: At the C-terminus a 6xHis tag; The expressed gene carries a pelB signal
T2 sequence (P22629 whole entry E125D/E140N/N47D/N73G/R108K/R127K/S51D/S69N/Y107S/Y46S, looked up): as the sequence (P22629 whole entry Y46S/N47D/S51D/S69N/N73G/Y107S/R108K/E125D/R127K/E140N, looked up) above
Source text: as §3

[4] = biological target: T3, HER2 (ERBB2) on HER2-positive SKOV3 ovarian cancer cells (UniProt P04626 23-1255, limits assumed); test: astatine-211-labeled Psyche B counted by gamma counter on SKOV3 cells pre-incubated with the fusion protein; CEA-V2122 as negative control
T3 construct: whole, on cells
Protocol: as §1
as §2, with “0.875×10⁶” for “0.875×10^6”, “6. The measurement results were Herceptin-V2122-dependent, and it was confirmed that Psyche B-At212 bound to the SKOV3 cells via Herceptin-V2122.” for “6.”

Row | Molecule | binding to SKOV3 cells, radiation dose by gamma counter [1] | precipitation with Ni-NTA magnetic beads, radiation dose by gamma counter (Herceptin-V2122) | bond with CEA-V2122 (CEA-V2122 [2]) | koff (CEA-V2122 [2]) | Kd (CEA-V2122 [3]) | kon (CEA-V2122 [3]) | binding result [4]
1 | N=C1N[C@H]2[C@H](CS[C@H]2CCCCC(=O)NCCCCCC(=O)Nc2cc(NC(=O)CCCCCNC(=O)CCCC[C@@H]3SC[C@@H]4NC(=N)N[C@@H]43)cc(C(=O)NCCOCCOCCNC(=O)c3cccc([211At])c3)c2)N1.O=C(O)C(F)(F)F.O=C(O)C(F)(F)F [Psyche B-At211, (3aS,3a′S,4S,4′S,6aR,6a′R)-4,4′-(((((5-((2-(2-(2-(3-(Astato-^211At)benzamido)ethoxy)ethoxy)ethyl)carbamoyl)-1,3-phenylene)bis(azanediyl))bis(6-oxohexane-6,1-diyl))bis(azanediyl))bis(5-oxopentane-5,1-diyl))bis(tetrahydro-1H-thieno[3,4-d]imidazol-2(3H)-iminium) 2,2,2-trifluoroacetate] | bound to the SKOV3 cells via Herceptin-V2122 | precipitated in a Herceptin-V2122 presence-dependent manner |  |  |  |  | 
2 | N=C1N[C@H]2[C@H](CS[C@H]2CCCCC(=O)NCCCCCC(=O)Nc2cc(NC(=O)CCCCCNC(=O)CCCC[C@@H]3SC[C@@H]4NC(=N)N[C@@H]43)cc(C(=O)NCCOCCOCCNC(=O)c3cccc(I)c3)c2)N1 [Psyche B-iodine, (3aS,3a′S,4S,4′S,6aR,6a′R)-4,4′-(((((5-((2-(2-(2-(3-Iodobenzamido)ethoxy)ethoxy)ethyl)carbamoyl)-1,3-phenylene)bis(azanediyl))bis(6-oxohexane-6,1-diyl))bis(azanediyl))bis(5-oxopentane-5,1-diyl))bis(tetrahydro-1H-thieno[3,4-d]imidazol-2(3H)-iminium) 2,2,2-trifluoroacetate] |  |  | form a stable bond with CEA-V2122 | 6.4e-07 s⁻¹ | 0.022 nM | 29000 M⁻¹ s⁻¹ | 
3 | N=C1N[C@H]2[C@H](CS[C@H]2CCCCCOCCCCNC(=O)CN(CCOCCOCCNC(=O)c2cccc(I)c2)CC(=O)NCCCCOCCCCC[C@@H]2SC[C@@H]3NC(=N)N[C@@H]32)N1 [Psyche P-iodine, 2,2′-((2-(2-(2-(3-Iodobenzamido)ethoxy)ethoxy)ethyl)azanediyl)bis(N-(4-((5-((3aS,4S,6aR)-2-iminohexahydro-1H-thieno[3,4-d]imidazol-4-yl)pentyl)oxy)butyl)acetamide) 2,2,2-trifluoroacetate] |  |  | form a stable bond with CEA-V2122 | 3.1e-05 s⁻¹ | 4.5 nM | 6800 M⁻¹ s⁻¹ | 
4 | B1 |  |  |  |  |  |  | no binding
